According to patent US20230073777A1, “CYCLIC-AMP RESPONSE ELEMENT BINDING PROTEIN (CBP) AND/OR ADENOVIRAL E1A BINDING PROTEIN OF 300 KDA (P300) DEGRADATION COMPOUNDS AND METHODS OF USE” (CULLGEN (SHANGHAI), INC., priority 2019, published 2023):
“Also recorded” adds a separate entry of the source.

How the values were obtained:
MCF-7 = assay: Cell viability assay, MCF-7; type: cell-based; details: Homo sapiens, MCF7, MCF-7, breast carcinoma
Method: (§1) Cells were seeded at a density of 5000 cells per well in 96-well assay plates and treated with test compounds following a 12-point 3-fold serial dilution. Three days later, cell viability was determined using the CellTiter-Glo assay kit according to the manufacturer's instructions. The dose-response curves were determined and IC50 values were calculated using the GraphPad Prism software following a nonlinear regression (least squares fit) method.
(§2) The IC50 value of each compound was determined as described in FIG. 4 and calculated using the GraphPad Prism 5.0 software.

MM.1S = assay: Cell viability assay, MM.1S; type: cell-based; details: Homo sapiens, MM1.S, Multiple Myeloma
Method: as §1, §2

Kasumi-1 = assay: Cell viability assay, Kasumi-1; type: cell-based; details: Homo sapiens, Kasumi-1, Acute myeloid leukemia
Method: as §1, §2

AMO-1 = assay: Cell viability assay, AMO-1; type: cell-based; details: Homo sapiens, AMO1, AMO-1, Multiple Myeloma
Method: as §1, §2

Pfeiffer = assay: Cell viability assay, Pfeiffer; type: cell-based; details: Homo sapiens, Diffuse large B-cell lymphoma
Method: as §1, §2

HL-60 = assay: Cell viability assay, HL-60; type: cell-based; details: Homo sapiens, HL-60, Acute myeloid leukemia
Method: as §1, §2

MEG-01 = assay: Cell viability assay, MEG-01; type: cell-based; details: Homo sapiens, MEG-01, Chronic myeloid leukemia
Method: as §1, §2

MM.1R = assay: Cell viability assay, MM.1R; type: cell-based; details: Multiple Myeloma
Method: as §1, §2

LNCaP cells = assay: LNCaP cell viability assay (CellTiter-Glo); type: cell-based; details: Homo sapiens
Outline: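 LNCaP cells, 5000/well, exposed to compounds in 12-point 3-fold serial dilution (top 10 μM) for 3 days. Viability by CellTiter-Glo luminescence, normalized to untreated cells; IC50 by least-squares nonlinear regression.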

L-363 = assay: Cell viability assay, L-363; type: cell-based; details: Homo sapiens, L-363, Multiple myeloma
Method: as §1, §2

HEL = assay: Cell viability assay, HEL; type: cell-based; details: Homo sapiens, Erythroleukemia
Method: as §1, §2

SU-DHL-1 = assay: Cell viability assay, SU-DHL-1; type: cell-based; details: Homo sapiens, SU-DHL-1, Diffuse large B-cell lymphoma
Method: as §1, §2

NCI-H1703 = assay: Cell viability assay, NCI-H1703; type: cell-based; details: Homo sapiens, NCI-H1703, Non-small cell lung cancer
Method: as §1, §2

NCI-H929 = assay: Cell viability assay, NCI-H929; type: cell-based; details: Homo sapiens, NCI-H929, Multiple Myeloma
Method: as §1, §2

NOMO-1 = assay: Cell viability assay, NOMO-1; type: cell-based; details: Homo sapiens, NOMO-1, Acute monocytic leukemia
Method: as §1, §2

NCI-H520 = assay: Cell viability assay, NCI-H520; type: cell-based; details: Homo sapiens, NCI-H520, Non-small cell lung cancer
Method: as §1, §2

SK-BR-3 = assay: Cell viability assay, SK-BR-3; type: cell-based; details: Homo sapiens, SK-BR-3, breast carcinoma
Method: as §1, §2

MOLM-13 = assay: Cell viability assay, MOLM-13; type: cell-based; details: Homo sapiens, MOLM-13, Acute monocytic leukemia
Method: as §1, §2

VCaP = assay: Cell viability assay, VCaP; type: cell-based; details: Homo sapiens, Prostate carcinoma
Method: as §1, §2

WSU-DLCL2 = assay: Cell viability assay, WSU-DLCL2; type: cell-based; details: Homo sapiens, WSUDLCL2, WSU-DLCL2, Diffuse large B-cell lymphoma
Method: as §1, §2

Karpas-422 = assay: Cell viability assay, Karpas-422; type: cell-based; details: Homo sapiens, Karpas-422, Diffuse large B-cell lymphoma
Method: as §1, §2

LK-2 = assay: Cell viability assay, LK-2; type: cell-based; details: Homo sapiens, LK-2, Non-small cell lung cancer
Method: as §1, §2

MV4; 11 = assay: Cell viability assay, MV4; 11; type: cell-based; details: Homo sapiens, 11, Acute monocytic leukemia
Method: as §1, §2

22Rv1 = assay: Cell viability assay, 22Rv1; type: cell-based; details: Homo sapiens, 22Rv1, Prostate carcinoma
Method: as §1, §2

RPMI-8226 = assay: Cell viability assay, RPMI-8226; type: cell-based; details: Homo sapiens, RPMI-8226, Multiple myeloma
Method: as §1, §2

CBP = molecular target: T1, CBP (Homo sapiens, UniProt Q92793); assay: Pharmacodynamic study, CBP in 22RV1 subcutaneous xenograft tumors; type: in vivo, Athymic nude mice; details: single dose 40 mg/kg, i.p. or p.o., six hours after administration (FIG. 9)
T1 construct: from tissue; host or cells: 22RV1 subcutaneous xenograft tumours in athymic nude mice
T1 sequence (Q92793 whole entry): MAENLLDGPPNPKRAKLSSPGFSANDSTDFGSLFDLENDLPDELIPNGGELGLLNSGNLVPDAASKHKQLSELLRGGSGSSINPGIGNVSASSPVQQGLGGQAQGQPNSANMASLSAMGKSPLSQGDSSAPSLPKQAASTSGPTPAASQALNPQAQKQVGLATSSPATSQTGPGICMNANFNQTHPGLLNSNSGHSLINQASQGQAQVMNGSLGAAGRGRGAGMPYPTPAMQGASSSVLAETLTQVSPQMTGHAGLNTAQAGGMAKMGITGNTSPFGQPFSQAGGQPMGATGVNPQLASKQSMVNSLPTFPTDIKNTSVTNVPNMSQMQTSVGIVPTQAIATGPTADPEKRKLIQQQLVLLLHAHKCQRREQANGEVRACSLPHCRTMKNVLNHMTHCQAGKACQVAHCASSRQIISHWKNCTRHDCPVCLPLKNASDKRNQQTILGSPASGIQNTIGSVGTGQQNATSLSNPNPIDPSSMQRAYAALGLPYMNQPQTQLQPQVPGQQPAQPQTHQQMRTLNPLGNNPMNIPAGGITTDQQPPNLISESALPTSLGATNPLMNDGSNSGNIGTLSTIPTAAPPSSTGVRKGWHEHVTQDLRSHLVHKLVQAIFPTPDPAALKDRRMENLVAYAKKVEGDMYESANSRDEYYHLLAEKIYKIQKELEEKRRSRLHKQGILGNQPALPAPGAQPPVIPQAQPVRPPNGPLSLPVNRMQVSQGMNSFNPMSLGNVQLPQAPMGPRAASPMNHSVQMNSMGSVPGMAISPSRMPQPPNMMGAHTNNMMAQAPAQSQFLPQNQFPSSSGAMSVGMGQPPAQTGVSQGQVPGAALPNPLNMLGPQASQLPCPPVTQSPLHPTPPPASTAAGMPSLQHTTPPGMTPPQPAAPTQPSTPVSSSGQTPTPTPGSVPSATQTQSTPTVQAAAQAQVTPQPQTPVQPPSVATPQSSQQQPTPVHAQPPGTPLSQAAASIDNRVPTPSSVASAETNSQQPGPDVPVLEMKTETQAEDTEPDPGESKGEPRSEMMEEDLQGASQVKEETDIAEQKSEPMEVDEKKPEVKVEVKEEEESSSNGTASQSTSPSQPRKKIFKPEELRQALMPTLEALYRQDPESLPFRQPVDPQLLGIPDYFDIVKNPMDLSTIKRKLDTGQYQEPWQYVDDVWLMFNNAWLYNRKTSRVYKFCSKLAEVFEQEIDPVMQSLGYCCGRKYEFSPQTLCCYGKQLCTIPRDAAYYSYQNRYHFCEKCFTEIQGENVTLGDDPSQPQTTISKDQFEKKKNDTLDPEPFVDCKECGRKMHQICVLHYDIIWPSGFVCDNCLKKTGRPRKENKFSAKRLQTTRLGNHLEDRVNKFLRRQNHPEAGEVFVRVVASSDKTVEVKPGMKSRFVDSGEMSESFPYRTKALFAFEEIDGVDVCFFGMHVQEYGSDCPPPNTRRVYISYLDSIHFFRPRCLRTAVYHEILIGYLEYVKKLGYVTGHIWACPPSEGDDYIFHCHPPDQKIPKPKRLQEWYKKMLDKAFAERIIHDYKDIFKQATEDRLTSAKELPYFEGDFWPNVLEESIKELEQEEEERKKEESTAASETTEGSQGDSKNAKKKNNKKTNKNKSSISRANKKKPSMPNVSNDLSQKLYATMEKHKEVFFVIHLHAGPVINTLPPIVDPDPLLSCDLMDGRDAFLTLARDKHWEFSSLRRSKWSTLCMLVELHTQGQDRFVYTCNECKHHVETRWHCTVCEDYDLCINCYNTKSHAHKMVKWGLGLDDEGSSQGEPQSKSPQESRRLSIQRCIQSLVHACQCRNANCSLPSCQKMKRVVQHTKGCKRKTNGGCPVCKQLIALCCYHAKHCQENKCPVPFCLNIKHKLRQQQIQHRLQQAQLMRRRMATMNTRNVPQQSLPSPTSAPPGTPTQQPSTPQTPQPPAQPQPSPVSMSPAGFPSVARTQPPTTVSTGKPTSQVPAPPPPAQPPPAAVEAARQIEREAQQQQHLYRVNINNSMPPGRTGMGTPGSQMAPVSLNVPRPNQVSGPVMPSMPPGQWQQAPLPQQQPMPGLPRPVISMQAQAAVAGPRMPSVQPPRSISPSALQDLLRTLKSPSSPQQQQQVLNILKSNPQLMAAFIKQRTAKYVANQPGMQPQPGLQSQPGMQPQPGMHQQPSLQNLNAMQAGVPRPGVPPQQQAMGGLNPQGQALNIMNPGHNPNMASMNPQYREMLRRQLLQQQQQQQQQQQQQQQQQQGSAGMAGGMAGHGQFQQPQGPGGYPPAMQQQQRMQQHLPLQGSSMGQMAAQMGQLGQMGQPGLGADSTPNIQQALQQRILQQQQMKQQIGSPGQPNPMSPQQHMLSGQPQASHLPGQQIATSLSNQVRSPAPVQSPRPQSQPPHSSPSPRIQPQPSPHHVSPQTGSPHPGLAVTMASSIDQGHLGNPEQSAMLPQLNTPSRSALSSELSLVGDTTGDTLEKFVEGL
Method: (§3) In addition to cultured cells, athymic nude mice bearing 22RV1 subcutaneous xenograft tumors at the right flank were intraperitoneally or orally treated with 40 mg/kg bivalent compounds. Six hours after drug administration, animals were sacrificed for immunoblotting of P300 and CBP in homogenized xenograft tumor masses. […] Moreover, ICR mice were orally treated with 40 mg/kg bivalent compounds. Six hours after drug administration, animals were sacrificed for immunoblotting of CBP in homogenized lung tissues.
(§4) Athymic nude mice bearing 22RV1 subcutaneous xenograft tumors at the right flank were intraperitoneally or orally treated with selected bivalent compounds at 40 mg/kg. Six hours after drug administration, animals were sacrificed, and xenograft tumors were collected for immunoblotting of P300 and CBP.
(§5) All animal experiments were performed under protocols approved by the Institutional Animal Care and Use Committee (IACUC) of Cullgen. Athymic nude mice (male, 5-weeks old) received 5 million 22RV1 cells subcutaneously inoculated at the right flank site. Twenty days following inoculation, tumors were approximately 500 mm^3 in size. Tumor-bearing mice were treated intraperitoneally or via oral gavage with vehicle or bivalent compounds at indicated doses. 6 hours after drug administration, animals were sacrificed, tumors were resected. Small chunks of tumors were homogenized for immunoblotting of P300/CBP and other proteins as indicated. Alternatively, ICR mice (male, 5-weeks old) were treated via oral gavage with vehicle or bivalent compounds at indicated doses. 6 hours after drug administration, animals were sacrificed, lung tissues were resected. Small chunks of lung tissues were homogenized for immunoblotting of CBP and other proteins as indicated.

P300 [1] = molecular target: T2, P300 (Homo sapiens, UniProt Q09472); assay: Immunoblotting of P300 protein levels in LNCaP or 22RV1 cells; type: cell-based; parameters: LNCaP or 22RV1 cells that express CBP/P300 proteins were treated with GNE-781 or the bivalent compounds; endogenous in cells; host or cells: LNCaP (clone FGC) or 22RV1 cells
T2 sequence (Q09472 whole entry): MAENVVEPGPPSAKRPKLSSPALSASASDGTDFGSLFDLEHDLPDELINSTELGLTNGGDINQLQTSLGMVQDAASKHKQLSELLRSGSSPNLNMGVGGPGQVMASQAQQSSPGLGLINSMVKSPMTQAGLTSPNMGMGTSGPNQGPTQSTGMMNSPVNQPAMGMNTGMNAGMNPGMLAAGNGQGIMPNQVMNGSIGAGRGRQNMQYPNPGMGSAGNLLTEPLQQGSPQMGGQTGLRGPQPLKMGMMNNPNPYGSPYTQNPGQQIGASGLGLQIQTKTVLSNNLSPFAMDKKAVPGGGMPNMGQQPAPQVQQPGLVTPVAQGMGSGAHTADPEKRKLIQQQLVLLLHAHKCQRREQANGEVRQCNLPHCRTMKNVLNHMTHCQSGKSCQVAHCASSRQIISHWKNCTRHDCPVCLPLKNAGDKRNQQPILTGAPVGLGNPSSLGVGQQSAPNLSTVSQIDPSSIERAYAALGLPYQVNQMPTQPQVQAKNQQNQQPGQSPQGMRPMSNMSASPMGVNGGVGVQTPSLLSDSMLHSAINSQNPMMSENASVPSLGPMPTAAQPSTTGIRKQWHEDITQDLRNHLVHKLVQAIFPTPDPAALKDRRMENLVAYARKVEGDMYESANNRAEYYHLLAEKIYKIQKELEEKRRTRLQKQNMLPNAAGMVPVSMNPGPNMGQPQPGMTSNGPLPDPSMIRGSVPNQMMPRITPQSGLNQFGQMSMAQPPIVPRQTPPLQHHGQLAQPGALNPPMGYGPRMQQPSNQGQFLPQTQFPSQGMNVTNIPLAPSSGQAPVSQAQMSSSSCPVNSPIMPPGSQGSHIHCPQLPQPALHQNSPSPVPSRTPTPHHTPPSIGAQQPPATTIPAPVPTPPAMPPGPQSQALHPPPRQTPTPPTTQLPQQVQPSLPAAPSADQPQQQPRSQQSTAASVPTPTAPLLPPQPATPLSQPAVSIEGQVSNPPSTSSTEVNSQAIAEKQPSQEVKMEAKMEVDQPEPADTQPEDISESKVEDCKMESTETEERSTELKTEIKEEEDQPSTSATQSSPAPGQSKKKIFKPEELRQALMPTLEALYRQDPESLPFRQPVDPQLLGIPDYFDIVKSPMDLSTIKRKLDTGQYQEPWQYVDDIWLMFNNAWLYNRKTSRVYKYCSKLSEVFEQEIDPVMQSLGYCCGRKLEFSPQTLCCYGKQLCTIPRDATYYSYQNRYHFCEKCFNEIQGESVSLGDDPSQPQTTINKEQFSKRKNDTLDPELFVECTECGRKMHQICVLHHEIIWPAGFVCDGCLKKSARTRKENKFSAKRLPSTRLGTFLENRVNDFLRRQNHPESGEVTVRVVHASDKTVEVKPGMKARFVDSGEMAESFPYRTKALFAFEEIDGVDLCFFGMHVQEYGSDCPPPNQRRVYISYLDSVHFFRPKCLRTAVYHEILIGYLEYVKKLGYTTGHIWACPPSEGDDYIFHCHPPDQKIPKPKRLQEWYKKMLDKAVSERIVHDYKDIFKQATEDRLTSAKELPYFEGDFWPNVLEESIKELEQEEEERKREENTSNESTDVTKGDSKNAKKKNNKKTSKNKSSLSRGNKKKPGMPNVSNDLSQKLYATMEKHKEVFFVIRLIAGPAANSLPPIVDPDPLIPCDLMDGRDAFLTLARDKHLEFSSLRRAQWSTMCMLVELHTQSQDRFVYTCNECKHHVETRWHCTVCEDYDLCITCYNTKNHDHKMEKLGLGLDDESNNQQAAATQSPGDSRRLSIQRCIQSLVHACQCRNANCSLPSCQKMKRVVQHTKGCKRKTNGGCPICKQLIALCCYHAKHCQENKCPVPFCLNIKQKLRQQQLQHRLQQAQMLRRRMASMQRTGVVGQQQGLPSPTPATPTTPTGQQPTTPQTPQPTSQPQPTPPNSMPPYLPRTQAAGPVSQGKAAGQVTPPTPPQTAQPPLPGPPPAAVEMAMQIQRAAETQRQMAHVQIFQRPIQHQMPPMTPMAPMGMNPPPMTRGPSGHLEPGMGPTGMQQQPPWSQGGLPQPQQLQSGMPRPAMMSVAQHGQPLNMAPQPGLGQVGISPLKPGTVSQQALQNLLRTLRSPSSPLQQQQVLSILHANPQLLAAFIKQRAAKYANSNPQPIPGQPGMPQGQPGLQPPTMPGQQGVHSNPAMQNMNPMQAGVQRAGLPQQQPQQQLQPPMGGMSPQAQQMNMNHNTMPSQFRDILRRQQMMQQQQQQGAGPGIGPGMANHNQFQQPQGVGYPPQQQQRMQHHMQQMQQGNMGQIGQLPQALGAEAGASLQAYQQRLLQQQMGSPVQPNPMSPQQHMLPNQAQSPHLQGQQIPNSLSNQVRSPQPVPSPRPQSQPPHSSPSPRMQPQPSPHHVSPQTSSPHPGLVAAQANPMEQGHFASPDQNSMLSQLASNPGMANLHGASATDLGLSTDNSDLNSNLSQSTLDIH
Outline: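 LNCaP or 22RV1 cells treated with compounds for indicated hours, DMSO as negative control. RIPA lysates resolved by SDS-PAGE and immunoblotted for P300 or CBP, tubulin or vinculin as loading control; chemiluminescent bands quantitated.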

P300 [2] = molecular target: T2, P300; assay: Pharmacodynamic study, P300 in 22RV1 subcutaneous xenograft tumors; type: in vivo, Athymic nude mice; parameters: from tissue; host or cells: 22RV1 subcutaneous xenograft tumours in athymic nude mice; details: single dose 40 mg/kg, i.p. or p.o., six hours after administration (FIG. 9)
Method: as §3, §4, §5

P300/CBP = assay: Immunoblotting of P300/CBP protein levels in LNCaP or 22RV1 cells; type: cell-based; details: LNCaP cells, 10 nM single dose (FIG. 8)
Method: Specific exemplary bivalent compounds were characterized in LNCaP or 22RV1 cells. LNCaP or 22RV1 cells that express CBP/P300 proteins were treated with GNE-781 or the bivalent compounds disclosed herein (P-001 to P-174) for indicated hours. Cells were collected, lysed and subject to immunoblotting using an antibody specific to P300 or CBP proteins. Tubulin or vinculin was included as the loading control. DMSO was used as the negative control.
Cultured cells or tissue chunks were washed with cold PBS once and lysed in cold RIPA buffer supplemented with protease inhibitors and phosphatase inhibitors (Beyotime Biotechnology). The solutions were then incubated at 4° C. for 30 minutes with gentle agitation to fully lyse cells. Cell lysates were centrifuged at 13,000 rpm for 10 minutes at 4° C. and pellets were discarded. Total protein concentrations in the lysates were determined by BCA assays (Beyotime Biotechnology). Cell lysates were mixed with Laemmli loading buffer to 1× and heated at 99° C. for 5 min. Proteins were resolved on SDS-PAGE and visualized by chemiluminescence. Images were taken by a ChemiDoc MP Imaging system (Bio-Rad). Protein bands were quantitated using the accompanied software provided by Bio-Rad.

Q: What does the source list for `CNC(=O)N1CCc2c(c(N3CCCc4cc(-c5cnn(C)c5)c(C(F)F)cc43)nn2C2CCOCC2)C1` [GNE-781, reference compound]?
A: IC50 (MCF-7): 2.39 µM; IC50 (MM.1S): 0.0128 µM; IC50 (Kasumi-1): 0.346 µM; IC50 (AMO-1): 0.138 µM; IC50 (Pfeiffer): 0.132 µM; IC50 (HL-60): > 10 µM; IC50 (MEG-01): > 10 µM; IC50 (MM.1R): 0.0132 µM; IC50 (LNCaP cells; cell viability, LNCaP clone FGC, Prostate carcinoma (Table 4)): 4.17 µM; IC50 (L-363): > 1 µM; IC50 (HEL): > 10 µM; IC50 (SU-DHL-1): > 1 µM; IC50 (NCI-H1703): > 10 µM; IC50 (NCI-H929): 0.0156 µM; IC50 (NOMO-1): > 10 µM; IC50 (NCI-H520): 5.38 µM; IC50 (SK-BR-3): > 10 µM; IC50 (MOLM-13): > 10 µM; IC50 (VCaP): 0.723 µM; IC50 (WSU-DLCL2): 0.014 µM; IC50 (Karpas-422): > 10 µM; IC50 (LK-2): 2.71 µM; IC50 (MV4; 11): > 10 µM; IC50 (22Rv1): 1.68 µM; IC50 (RPMI-8226): 0.0103 µM

Q: Which results are given for `CC(=O)N1CCc2c(c(N3CCCc4cc(-c5cnn(C)c5)c(C(F)F)cc43)nn2C2CCN(C(=O)CCCCCNc3cccc4c3C(=O)N(C3CCC(=O)NC3=O)C4=O)CC2)C1` (stereo not shown) [P-100, 4-((6-(4-(5-acetyl-3-(7-(difluoromethyl)-6-(1-methyl-1H-pyrazol-4-yl)-3,4-dihydroquinolin-1(2H)-yl)-4,5,6,7-tetrahydro-1H-pyrazolo[4,3-c]pyridin-1-yl)piperidin-1-yl)-6-oxohexyl)amino)-2-(2,6-dioxopiperidin-3-yl)isoindoline-1,3-dione]?
A: CBP protein levels in 22RV1 xenograft tumors (CBP): significantly reducing; P300 protein levels, dependence on interaction with cereblon (P300 [1]; LNCaP or 22RV1 cells, various concentrations (FIG. 7)): reduced P300 protein levels in a concentration-dependent manner; inhibition at 0.01 µM (P300 [1]; percentage of inhibition of p300 at 10 nM (Table 3), read-out: Degradation (10 nM)): > 80%; P300 protein levels in 22RV1 xenograft tumors (P300 [2]): significantly reducing; IC50 (LNCaP cells; 72 h, LNCaP prostate cancer cell viability inhibition, 3 days, CellTiter-Glo (Table 3)): 0.0009 µM; degradation of P300/CBP in combination with pomalidomide, MG-132, Bortezomib or MLN4924 (P300/CBP): compromised; also recorded: neutralized
